Laboratory results reported in article PMC11923649, “Novel C-2 Aromatic Heterocycle-Substituted Triterpenoids Inhibit Hedgehog Signaling in GLI1 Overexpression Cancer Cells” (ACS Omega, 2025).

Key:
CCRF-CEM = test: MTS cytotoxicity assay, 72 h, CCRF-CEM; type: cell-based; settings: Table 1; for IC50: Homo sapiens, CCRF-CEM, 72 h, MTS; for SI (selectivity index): IC50 of CCRF-CEM line vs average of both fibroblasts (BJ and MRC-5)
Method in brief: (§1)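 Cells were seeded and, the next day, exposed to compounds at 50–0.0975 μmol/L in 2-fold dilutions for 72 h at 37 °C, 5% CO2. MTS/phenazine methosulfate was then added for 1–4 h, absorbance was read at 490 nm, and IC50 values were derived.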

HCT116 p53–/– = test: MTS cytotoxicity assay, 72 h, HCT116 p53–/–; type: cell-based; settings: Homo sapiens, HCT-116, 72 h
Method in brief: as §1

HCT 116 = test: MTS cytotoxicity assay, 72 h, HCT 116; type: cell-based; settings: Homo sapiens, HCT-116, 72 h
Method in brief: as §1

[1] = tested on: A549 (lung adenocarcinoma); test: MTS cytotoxicity assay, 72 h, A549; type: cell-based; settings: Homo sapiens, A549, 72 h
Method in brief: as §1

K562-TAX = test: MTS cytotoxicity assay, 72 h, K562-TAX; type: cell-based
[2] = tested on: nine cancer and two normal fibroblast derived cell lines; test: MTS cytotoxicity assay, whole panel of 11 cell lines; type: cell-based; settings: 72 h, statement for whole panel
Protocol: Based on the preliminary results and tests of a larger library of known triterpenoids, a small set of 2-substituted lupane and 18α-oleanane derivatives was designed and synthesized. As the first step, the cytotoxic activity of the synthesized derivatives was assessed using an MTS assay following 72 h of treatment (Table 1). Selected cell lines A549 (lung adenocarcinoma) and DU-145 (prostate cancer) are both dependent on Hh signaling. In addition, K562 (chronic myelogenous leukemia) was included as a cell line sensitive to Hh inhibitors[32] and a type of hematological malignancy with active Hh signaling.[33] MRC-5 lung fibroblasts and BJ human skin fibroblasts cell lines were used to evaluate the toxicity against nontumor cells. Compounds were also tested using the standard panel of other cancer cell lines, as described in our earlier work (Table 1).[27]
The human prostate tumor-derived cell line DU145 was obtained from ATCC (American Type Culture Collection) and cultured in RPMI 1640 (Roswell Park Memorial Institute) medium supplemented with 10% (v/v) fetal bovine serum (FBS). Human prostate tumor-derived LNCaP cells were obtained from ATCC and cultured in RPMI 1640 medium supplemented with 10% FBS. […] Finally, the absorbance at 490 nm was measured using an EnVision multifunctional modular reader (PerkinElmer). The IC50 value was determined using Dotmatics software.

U2OS = test: MTS cytotoxicity assay, 72 h, U2OS; type: cell-based; settings: Homo sapiens
[3] = tested on: BJ human skin fibroblasts; test: MTS cytotoxicity assay, 72 h, BJ fibroblasts; type: cell-based; settings: Homo sapiens, Skin fibroblast, normal fibroblasts
Method in brief: as §1

[4] = tested on: K562 (chronic myelogenous leukemia); test: MTS cytotoxicity assay, 72 h, K562; type: cell-based; settings: Homo sapiens
Method in brief: as §1

DU-145 (prostate cancer) = test: MTS cytotoxicity assay, 72 h, DU-145; type: cell-based, human; settings: Homo sapiens, DU-145, 72 h
Method in brief: as §1

MRC-5 lung fibroblasts = test: MTS cytotoxicity assay, 72 h, MRC-5 fibroblasts; type: cell-based, human; settings: Homo sapiens, MRC5, 72 h, normal fibroblasts
Method in brief: as §1

CEM-DNR = test: MTS cytotoxicity assay, 72 h, CEM-DNR; type: cell-based; settings: Homo sapiens

## CC1(C)C(=O)C(c2ccc3cn[nH]c3c2)=C[C@@]2(C)C1CC[C@]1(C)C2CCC2C3[C@H]4OC[C@@]3(CCC4(C)C)CC[C@]21C (stereo partly drawn) [Compound 4n, 2-(Indazol-6-yl)-19β,28-epoxyolean-1-en-3-one]
CCRF-CEM
  IC50: 18 µM
  SI (selectivity index): 2.1
HCT116 p53–/–; Table 1
  IC50: 31 µM
HCT116 p53–/–; full Table S1
  IC50: 30.6 µM
HCT 116; Table 1
  IC50: 31 µM
HCT 116; full Table S1
  IC50: 30.6 µM
[1]; Table 1
  IC50: 30 µM
[1]; full Table S1
  IC50: 29.5 µM
K562-TAX; Table 1
  IC50: 16 µM
K562-TAX; full Table S1
  IC50: 16.8 µM
[2]
  Cytotoxic activity (IC50) on these 11 cell lines: weak cytotoxicity
U2OS; Table 1
  IC50: 25 µM
U2OS; full Table S1
  IC50: 24.5 µM
[3]; Table 1
  IC50: 42 µM
[3]; full Table S1
  IC50: 42.2 µM
[4]; Table 1
  IC50: 23 µM
[4]; full Table S1
  IC50: 22.5 µM
DU-145 (prostate cancer); Table 1
  IC50: 24 µM
DU-145 (prostate cancer); full Table S1
  IC50: 23.9 µM
MRC-5 lung fibroblasts; Table 1
  IC50: 33 µM
MRC-5 lung fibroblasts; full Table S1
  IC50: 33.2 µM
CEM-DNR; Table 1
  IC50: 24 µM
CEM-DNR; full Table S1
  IC50: 24.1 µM

## C=C(C)[C@@H]1CC[C@]2(C(=O)O)CC[C@]3(C)C(CCC4[C@@]5(C)C=C(c6ccc7cn[nH]c7c6)C(=O)C(C)(C)C5CC[C@]43C)C12 (some centres unmarked) [Compound 11n, 2-(Indazol-6-yl)-3-oxolupa-1,20(29)-dien-28-oic acid]
CCRF-CEM
  IC50: 4.9 µM
  SI (selectivity index): 6.3
HCT116 p53–/–; Table 1
  IC50: 17 µM
HCT116 p53–/–; full Table S1
  IC50: 16.8 µM
HCT 116; Table 1
  IC50: 15 µM
HCT 116; full Table S1
  IC50: 14.9 µM
[1]; Table 1
  IC50: 15 µM
[1]; full Table S1
  IC50: 15.1 µM
K562-TAX; Table 1
  IC50: 12 µM
K562-TAX; full Table S1
  IC50: 12.1 µM
U2OS; Table 1
  IC50: 21 µM
U2OS; full Table S1
  IC50: 20.5 µM
[3]; Table 1
  IC50: 35 µM
[3]; full Table S1
  IC50: 35.1 µM
[4]; Table 1
  IC50: 22 µM
[4]; full Table S1
  IC50: 22.3 µM
DU-145 (prostate cancer); Table 1
  IC50: 8.3 µM
MRC-5 lung fibroblasts; Table 1
  IC50: 27 µM
MRC-5 lung fibroblasts; full Table S1
  IC50: 26.5 µM
CEM-DNR; Table 1
  IC50: 22 µM
CEM-DNR; full Table S1
  IC50: 21.9 µM
